Reference: patent US4652637A, “Steroidal glycolipids” (priority 1985, dated 1987)

Key:
[1] = tested on: Pseudomonas aeruginosa (Immunotype 1); assay: In vivo protection against Pseudomonas aeruginosa infection in cyclophosphamide-immunosuppressed CFl female mice (LD50 / protective index); settings: CY-treated mice, LD50 (CY + test compound) / LD50 (CY alone); for Protective Index (log): Table 3, Pseudomonas aeruginosa, dose and route not given; for P.I. (log): PA, sub cutaneous
Method: (§1) Groups of 15-20 CFl female mice (Charles River Breeding, Cambridge, MA) weighing 22-28 gm were injected intraperitoneally (i.p.) with cyclophosphamide (Cytoxan; CY) at 250 mg per kg body weight. One to two hours later they were typically injected again with the test material by the route specified. Four days later, the mice were divided into groups of five, each of which were injected i.p. with a different dilution of a suspension of Pseudomonas aeruginosa (Immunotype 1). The number of survivors was determined periodically and an estimate was made of the number of CFU of Pseudomonas organisms necessary to cause 50% lethality by the cumulative method of L. J. Reed and H. Muench (Am. J. Hygeine 27 (1938) 493-497). A protective index (P.I.) was defined as the LD50 for the mice receiving cyclophosphamide and the test compound divided by the LD50 for the mice receiving cyclophosphamide alone. All control mice were injected with aqueous vehicle in the same route and schedule as the test animals.
(§2) All compounds for dosing were suspended in a sterile medium referred to as "aqueous vehicle" which contains 0.9% sodium chloride, 0.5% carboxymethyl cellulose, 0.4% Tween 80, and 0.9% benzyl alcohol unless otherwise stated. Test materials were evaluated via subcutaneous (s.c.), i.p., intramuscular (i.m.), orally (p.o.). and intravenous (i.v.) routes of administration. The initial test dose was 40 mg per kg per mouse, with each active compound subsequently titrated below this level.
(§3) All bacteria were inoculated i.p. to induce infection in the in vivo experiments. Candida albicans, however, was administered i.v. Bacteria cultures were harvested in the log phase, washed with phosphate buffered saline (PBS, and resuspended in PBS containing 10% glycerol for freezing at -70° C. in 1 ml aliquots. The number of […] (cfu's) was determined before and after freezing. Frozen cultures were routinely thawed and diluted in sterile PBS just prior to inoculation. Viable cell counts were routinely done on thawed cultures the day of challenge to determine the number of cfu's. Candida albicans was stored in distilled water at room temperature. Viable cell counts were determined the day of testing.
(§4) The testing and results of 6-(5-cholesten-3β-yloxy)hexyl-1-thio-β-D-mannopyranoside (Example 2) against various orgaisms is shown in Table 2.

Staphylococcus aureus = assay: In vivo protection against Staphylococcus aureus infection in cyclophosphamide-immunosuppressed mice (LD50 / protective index); settings: SA, CY-treated mice, sub cutaneous, LD50 (CY + test compound) / LD50 (CY alone)
Method: as §1, §2, §3, §4

Candida albicans = assay: In vivo protection against Candida albicans infection in cyclophosphamide-immunosuppressed mice (LD50 / protective index); settings: CA i.v., CY-treated mice, sub cutaneous, LD50 (CY + test compound) / LD50 (CY alone)
Method: as §1
as §2, with “The initial test dose was 40 mg per kg per mouse, with each active compound subsequently titrated below this level.” left out
as §3, with “testing. […]” for “testing.”

SMILES: CC(C)CCC[C@@H](C)[C@H]1CC[C@H]2[C@@H]3CC=C4C[C@@H](OCCCCCCS[C@H]5O[C@H](CO)[C@@H](O)[C@H](O)[C@@H]5O)CC[C@]4(C)[C@H]3CC[C@]12C [Example 1, 6-(5-Cholesten-3β-yloxy)hexyl 1-thio-α-D-mannopyranoside]
- Protective Index (log) [1]: 1.5 log

SMILES: CC(C)CCC[C@@H](C)[C@H]1CC[C@H]2[C@@H]3CC=C4C[C@@H](OCCCCCCS[C@@H]5O[C@H](CO)[C@@H](O)[C@H](O)[C@@H]5O)CC[C@]4(C)[C@H]3CC[C@]12C [Example 2, 6-(5-Cholesten-3β-yloxy)hexyl 1-thio-β-D-mannopyranoside]
- P.I. (log) ([1]; 10 mg/kg): 2.75 log
- P.I. (log) ([1]; 20 mg/kg): 3.75 log
- P.I. (log) ([1]; 40 mg/kg): 4.33 log
- P.I. (log) ([1]; 80 mg/kg): 4.66 log
- Protective Index (log) [1]: 4.5 log
- P.I. (log) (Staphylococcus aureus; 5 mg/kg): 0.99 log
- P.I. (log) (Staphylococcus aureus; 10 mg/kg): 1.47 log
- P.I. (log) (Staphylococcus aureus; 20 mg/kg): 1.83 log
- P.I. (log) (Staphylococcus aureus; 40 mg/kg): 2.66 log
- P.I. (log) (Candida albicans; 10 mg/kg): 0.67 log
- P.I. (log) (Candida albicans; 20 mg/kg): 0.81 log
- P.I. (log) (Candida albicans; 40 mg/kg): 1 log

SMILES: CC(C)CCC[C@@H](C)[C@H]1CC[C@H]2[C@@H]3CC=C4C[C@@H](OCCCCCCS[C@@H]5O[C@@H](C)[C@@H](O)[C@@H](O)[C@@H]5O)CC[C@]4(C)[C@H]3CC[C@]12C [Example 3, 6-(5-Cholesten-3β-yloxy)hexyl 1-thio-α-L-fucopyranoside]
- Protective Index (log) [1]: 2.8 log

SMILES: CC(C)CCC[C@@H](C)[C@H]1CC[C@H]2[C@@H]3CC=C4C[C@@H](OCCCCCCS[C@H]5O[C@@H](C)[C@@H](O)[C@@H](O)[C@@H]5O)CC[C@]4(C)[C@H]3CC[C@]12C [Example 4, 6-(5-Cholesten-3β-yloxy)hexyl 1-thio-β-L-fucopyranoside]
- Protective Index (log) [1]: 1.3 log

SMILES: CC(C)CCC[C@@H](C)[C@H]1CC[C@H]2[C@@H]3CC=C4C[C@@H](OCCOCCS[C@@H]5O[C@H](CO)[C@@H](O)[C@H](O)[C@@H]5O)CC[C@]4(C)[C@H]3CC[C@]12C [Example 5, 2-(2-(5-Cholesten-3β-yloxy)ethoxy)ethyl 1-thio-β-D-mannopyranoside]
- Protective Index (log) [1]: 1.7 log

SMILES: CC[C@H](C=C[C@@H](C)[C@H]1CC[C@H]2[C@@H]3CC=C4C[C@@H](OCCCCCCS[C@@H]5O[C@H](CO)[C@@H](O)[C@H](O)[C@@H]5O)CC[C@]4(C)[C@H]3CC[C@]12C)C(C)C [Example 6, 6-(Stigmasta-5,22-dien-3β-yloxy)hexyl 1-thio-β-D-mannopyranoside]
- Protective Index (log) [1]: 2.0 log

SMILES: CC(=O)[C@H]1CC[C@H]2[C@@H]3CC=C4C[C@@H](OCCCCCCS[C@@H]5O[C@H](CO)[C@@H](O)[C@H](O)[C@@H]5O)CC[C@]4(C)[C@H]3CC[C@]12C [Example 7, 6-(Pregn-5-en-20-one-3β-yloxy)hexyl 1-thio-βD-mannopyranoside]
- Protective Index (log) [1]: 3.5 log

SMILES: COC(=O)[C@H]1CC[C@H]2[C@@H]3CC=C4C[C@@H](OCCCCCCS[C@@H]5O[C@H](CO)[C@@H](O)[C@H](O)[C@@H]5O)CC[C@]4(C)[C@H]3CC[C@]12C [Example 8, 6-(17β-Carbomethoxy-androst-5-en-3β-yloxy)hexyl 1-thio-β-D-mannopyranoside]
- Protective Index (log) [1]: 2.5 log

SMILES: C[C@]12CC[C@H]3[C@@H](CC=C4C[C@@H](OCCCCCCS[C@@H]5O[C@H](CO)[C@@H](O)[C@H](O)[C@@H]5O)CC[C@@]43C)[C@@H]1CC[C@@H]2C(N)=O [Example 9, 6-(17β-Carbamido-androst-5-en-3β-yloxy)hexyl 1-thio-β-D-mannopyranoside]
- Protective Index (log) [1]: 2.5 log

SMILES: CC(O)[C@H]1CC[C@H]2[C@@H]3CC=C4C[C@@H](OCCCCCCS[C@@H]5O[C@H](CO)[C@@H](O)[C@H](O)[C@@H]5O)CC[C@]4(C)[C@H]3CC[C@]12C (stereo partly drawn) [Example 10, 6-(Pregn-5-en-20-ol-3β-yloxy)hexyl 1-thio-β-D-mannopyranoside]
- Protective Index (log) [1]: 1.3 log

SMILES: CC(=O)N[C@@H](C)[C@H]1CC[C@H]2[C@@H]3CC=C4C[C@@H](OCCCCCCS[C@@H]5O[C@H](CO)[C@@H](O)[C@H](O)[C@@H]5O)CC[C@]4(C)[C@H]3CC[C@]12C [Example 11, 6-(20S-Acetamido-pregn-5-en-3β-yloxy)hexyl 1-thio-β-D-mannopyranoside]
- Protective Index (log) [1]: 3.0 log

SMILES: CC(=O)N[C@H](C)[C@H]1CC[C@H]2[C@@H]3CC=C4C[C@@H](OCCCCCCS[C@@H]5O[C@H](CO)[C@@H](O)[C@H](O)[C@@H]5O)CC[C@]4(C)[C@H]3CC[C@]12C [Example 12, 6-(20R-Acetamido-pregn-5-en-3β-yloxy)hexyl 1-thio-β-D-mannopyranoside]
- Protective Index (log) [1]: 2.6 log
